{"source": "patent US11007178B2", "about": "“Methods and uses of Nampt activators for treatment of diabetes, cardiovascular diseases, and symptoms thereof” (University of South Florida, priority 2016, dated 2021)", "key": {"H9C2 cardiomyoblasts": {"system": "H9C2 cardiomyoblasts", "assay": "NAD levels in H9C2 cardiomyoblasts", "assay_type": "cell-based", "settings": "H9C2, 10 μM, vs vehicle (1% DMSO) or FK866 (10 nM)", "excerpt": "Nampt, a rate-limiting enzyme, controls the level of NAD+ and protects the heart by stimulating SIRT1. […] The data presented in this Example coupled with previous evidence of the ability of P7C3 to bind and activate Nampt unequivocally indicate that the rescue of arrythmogenic and myopathy changes noted in P7C3 treated db/db mice are in due to activation of Nampt activation, NAD elevation, and stimulation of Nampt-SIRT1 axis."}, "wild-type C57 hearts": {"system": "wild-type C57 hearts", "assay": "Langendorff myocardial ischemia-reperfusion injury, wild-type hearts", "design": "species or system mouse", "settings": "10 μM, 45 min ischemia, 60 min reperfusion, vs vehicle", "description": "Following a 45 minutes of ischemia in the wild type mouse hearts we utilized P7C3 and allowed reperfusion for first 30 minutes of reperfusion period during a 60 minutes reperfusion phase. […] Red portion of the stain in FIGS. 12A and 12C can indicate viable tissue, where as white or pale colored areas are infarcted areas. Qualification for the infract size is depicted in the accompanying bar graphs in each panel. ***p<0.0001, **p<0.001, vehicle vs. P7C3 in each group."}, "[1]": {"system": "pancreatic islet β-cells of diabetic mice", "assay": "Pancreatic islets and beta cells, Gomori staining", "assay_type": "in vivo", "settings": "10 mg/Kg daily, 4 weeks, vs vehicle", "description": "Additionally diabetic mice were treated with P7C3 for 4 weeks with daily dose of 10 mg/Kg with P7C3 or vehicle. Thereafter, the pancreas was collected at necropsy and cryosectioned, the cross sections were stained for visualizing the damage of β-cells in diabetes and rescue by P7C3. […] P<0.01. ** indicates […] between Vehicle and P7C3 groups and *** indicates P<0.001 Vehicle and P7C3 groups as determined by a one-way ANOVA followed by Tukey test."}, "db/db mice [2]": {"system": "db/db mice", "assay": "Echocardiography, cardiomyopathy and cardiac performance", "assay_type": "in vivo", "excerpt": "A similar increase (p<0.05) in pulmonary VTI was also noted in the 20 week db/db mice when compared with WT controls. […] A similar increase in M-mode short axis measurements in 20 week db/db was also noted in left ventricular internal dimension (LVID) at both systole and diastole. […] This increase in LVID is indicative of increased heart size when compared with Wt controls."}, "diabetic mice": {"system": "diabetic mice", "assay": "Insulin tolerance test (ITT)", "assay_type": "in vivo", "settings": "about 10 mg/Kg daily, 4 weeks, insulin 5 U/Kg i.v.", "description": "Diabetic mice were utilized and treated with P7C3 for 4 weeks with a daily dose of about 10 mg/Kg P7C3 or vehicle. Thereafter, ITT (insulin tolerance test) was performed by injecting insulin 5 U/Kg body weight i.v. Blood glucose levels were monitored as shown in FIGS. 9A-9B."}, "db/db mice [3]": {"system": "db/db mice", "assay": "NADH/NAD ratio in diabetic model", "assay_type": "in vivo", "settings": "4 weeks treatment, vs vehicle"}, "diabetic hearts (db/db)": {"system": "diabetic hearts (db/db)", "assay": "Langendorff myocardial ischemia-reperfusion injury, diabetic hearts", "design": "species or system mice", "settings": "4 week treated diabetic hearts, 45 min ischemia, 60 min reperfusion, vs vehicle"}, "db/db mice [4]": {"system": "db/db mice", "assay": "Serum insulin levels by ELISA", "assay_type": "in vivo", "settings": "diabetic mice, about 10 mg/kg i.p., 4 weeks, vs vehicle", "description": "A Nampt activator, P7C3, was administered and various effects were evaluated. […] Briefly, the dose of P7C3 was about 10 mg/kg and administered i.p. to diabetic mice and the effect on serum insulin, insulin tolerance, blood glucose, and pancreatic beta cell number and insulin granulation in the islets of a diabetic model pancreas. The serum from P7C3 or vehicle treated diabetic mice and measured the insulin levels by ELISA assay."}, "[5]": {"system": "pancreatic islet β-cells of diabetic mice", "assay": "Immunohistochemical staining for insulin in pancreatic beta-islets", "assay_type": "in vivo", "settings": "vs vehicle"}, "db/db mice [6]": {"system": "db/db mice", "assay": "ECG, cardiac electrical abnormalities", "assay_type": "in vivo", "settings": "20 week old, vs vehicle treated db/db", "description": "(§1) To determine the effect of the Nampt activator on blood sugar control and cardiac electrical activity in diabetics, we examined the effects of P7C3,in a diabetic mouse model (db/db mice). Briefly, wild-type or db/db mice were treated with a Nampt activator (P7C3) or control. The Nampt activator or control was administered daily via intraperitoneal (i.p.) injection at about 10 mg/kg."}, "db/db mice [7]": {"system": "db/db mice", "assay": "Blood sugar level in diabetic mouse model over 4 weeks", "assay_type": "in vivo", "settings": "10 mg/kg i.p. daily", "description": "as §1"}, "db/db mice [8]": {"system": "db/db mice", "assay": "Intra-peritoneal glucose tolerance test (IPGTT)", "assay_type": "in vivo", "settings": "10 mg/kg, 4 weeks, vs vehicle", "description": "The diabetic model was treated with a vehicle or P7C3 for 4 weeks. Then a glucose tolerance test was conducted.\nas §1\nAn insulin tolerance test was also performed after 4 weeks of Nampt activator treatment as previously described."}, "Wt mouse heart": {"system": "Wt mouse heart", "assay": "Ex vivo lactate perfusion of heart, ventricular arrhythmia", "settings": "2 out of 5 mice, control 0%", "excerpt": "Cardiac elevation of NADH through ex vivo lactate perfusion of Wt mouse heart increases the incidence of ventricular arrhythmia by 40% (2 out of 5 mice) (FIGS. 5A and 5B)."}, "[9]": {"settings": "diabetic mice, 4 week treatment"}}}
{"compound": "NC(=O)c1ccc[n+]([C@@H]2O[C@H](COP(=O)([O-])O)[C@@H](O)[C@H]2O)c1", "note": "[NMN, nicotinamide mononucleotide, reference compound]", "values": [{"measurement": "NAD levels", "setting": "H9C2 cardiomyoblasts", "value": "significantly (P<0.01) increases"}]}
{"compound": "OC(CNc1ccccc1)Cn1c2ccc(Br)cc2c2cc(Br)ccc21", "note": "(stereo not shown) [P7C3]", "values": [{"measurement": "NAD levels", "setting": "H9C2 cardiomyoblasts", "value": "significantly (P<0.01) increases"}, {"measurement": "protection from myocardial ischemia-reperfusion injury (infarct size)", "setting": "wild-type C57 hearts", "value": "cardioprotective effect"}, {"measurement": "beta cells per section", "setting": "[1]", "value": "significant improvement"}, {"measurement": "number of beta cells per islet", "setting": "[1]", "value": "improved"}, {"measurement": "number of pancreatic islets in a unit area of the pancreas", "setting": "[1]", "value": "improved"}, {"measurement": "cardiomyopathy", "setting": "db/db mice [2]; 4 week treatment", "value": "partial rescue"}, {"measurement": "IVRT (isovolumic relaxation time)", "setting": "db/db mice [2]; P7C3 treated diabetic mice", "value": "improvement in cardiac performance"}, {"measurement": "MPI (myocardial performance index)", "setting": "db/db mice [2]; P7C3 treated diabetic mice", "value": "improvement in cardiac performance"}, {"measurement": "LV mass", "setting": "db/db mice [2]; db/db mice", "value": "smaller increase"}, {"measurement": "aortic VTI", "setting": "db/db mice [2]; db/db mice, 4-week treatment", "value": "much less of an increase"}, {"measurement": "pulmonary VTI", "setting": "db/db mice [2]; db/db mice, 4-week treatment", "value": "much less of an increase"}, {"measurement": "left ventricular internal dimension (LVID)", "setting": "db/db mice [2]; db/db mice, particularly at the diastole", "value": "much less increase"}, {"measurement": "% ejection fraction", "setting": "db/db mice [2]; [9]", "value": "significantly (p<0.05) decreased"}, {"measurement": "% fractional shortening", "setting": "db/db mice [2]; [9]", "value": "significantly (p<0.05) decreased"}, {"measurement": "insulin sensitivity (insulin tolerance test, blood glucose)", "setting": "diabetic mice", "value": "improved insulin sensitivity"}, {"measurement": "NADH/NAD ratio", "setting": "db/db mice [3]", "value": "significantly attenuated"}, {"measurement": "protection from myocardial ischemia-reperfusion injury (infarct size)", "setting": "diabetic hearts (db/db)", "value": "cardioprotective effect"}, {"measurement": "serum insulin levels", "setting": "db/db mice [4]", "value": "increased"}, {"measurement": "insulin positive beta-cells per islet area", "setting": "[5]", "value": "increased insulin production"}, {"measurement": "QRS interval", "setting": "db/db mice [6]", "value": "significantly reduced (p<0.001) back to Wt levels"}, {"measurement": "QT interval", "setting": "db/db mice [6]", "value": "significantly reduced (p<0.001) back to Wt levels"}, {"measurement": "QTc interval", "setting": "db/db mice [6]", "value": "significantly reduced (p<0.001) back to Wt levels"}, {"measurement": "net reduction in blood sugar levels", "setting": "db/db mice [7]", "value": 173.2, "unit": "mg/dL"}, {"measurement": "blood sugar level", "setting": "db/db mice [7]; at 4 weeks, vehicle db/db 467.5±34.2, wild type 209.8±6.1", "value": "214.5 ± 16.9", "unit": "mg/dL"}, {"measurement": "glucose tolerance after 2 hour glucose load", "setting": "db/db mice [8]", "value": "increased glucose tolerance"}, {"measurement": "insulin release after glucose load", "setting": "db/db mice [8]", "value": "significantly (P<0.001) increased"}]}
{"compound": "lactate", "values": [{"measurement": "incidence of ventricular arrhythmia", "setting": "Wt mouse heart", "value": 40, "unit": "%"}]}
